Measurements taken from US9320271B2, “Microbial composition” (Rohm and Haas Company, priority 2011, dated 2016).
Where “and” joins values, the source holds several entries; their conditions need not be identical. Equal values may be shown once.

Key:
[1] = test system: Escherichia coli (E. coli—ATCC #10536); experiment: Automated assessment of efficacy in surfactant base (2.85% sodium cocoyl glycinate and 1.85% sodium lauroamphoacetate, pH 10.0), 15 seconds exposure; format: cell-based; settings: for No. of replicates showing growth (out of 4) / Δ OD 450 nm = OD450 (time = 16 hours) − OD450 (time zero), Mean / Δ OD 590 nm OD590 (time = 16 hours) − OD590 (time zero), Mean: alone, model surfactant solution; for MBC (minimum biocidal concentration): in 2.85% sodium cocoyl glycinate + 1.85% sodium lauroamphoacetate solution at pH 10, E. coli
Procedure: Test Methodology for Automated Assessment of Efficacy in Surfactant Base Microbiocidal Activity of Actives as Per the Invention in a Model Surfactant Medium Test Methodology for Automated Assessment of Efficacy in Surfactant Base In these examples, the efficacy of combinations of actives were tested in a surfactant cleansing formulation comprising 2.85% sodium cocoyl glycinate and 1.85% sodium lauroamphoacetate. This corresponds to a 50% in use dilution with water of a neat formulation containing 5.7% cocoyl glycinate and […] % sodium, lauroamphoacetate during hand washing. Solutions were prepared such that the concentrations of the surfactant components and test actives were 1.1× the final desired concentration in order to allow for dilution with the bacterial inoculum in the test. The solutions were manually adjusted to pH 10.0 by dropwise addition of sodium hydroxide solution, as measured with a pH meter at ambient temperature. The efficacy of the combinations of the present invention was determined against Escherichia coli (E. coli—ATCC #10536), at a concentration of approximately 1×10^8 bacteria per mL. Tests were conducted using standard microtiter plate assays using an automated liquid handling system. 270 μl of the surfactant test solution was pipetted into each well of the microtitre plate and 30 μl of the bacterial suspension was then added. Alter exactly 15 seconds of bacterial exposure, a 30 μl volume of bacterial cells was withdrawn and transferred to 270 μl of D/E quench solution. After 5 minutes in the D/E quench, the optical density (OD) was measured for each plate in turn at two specific wavelengths (450 nm and 590 nm). These provide a dual check of antimicrobial activity, as the OD450 reading is specific for the yellow colour of D/E quench when bacterial growth is observed, whereas OD590 is specific for the initial purple colour of the D/E quench which is retained if no bacterial growth is observed. After the time zero OD measurements, plates were then incubated at 37° C. overnight (16 hours) before repeating the OD measurements. Delta OD values were calculated by subtracting […]. Bacterial growth is observed as an increase in OD450 and a decrease in ΔOD590. To identify antibacterially efficacious systems (those preventing appreciable bacterial growth after incubation), the following threshold changes in OD readings have been adopted: if (1). OD450 increases by less than 0.2 absorbance unit on incubation and (2). OD590 decreases by less than 0.35 unit on incubation. Conversely, where OD450 increases by more than 0.2 AU and OD590 decreases by more than 0.35 unit after incubation, corresponding to a colour shift from purple to yellow, the test system allows bacterial growth and is not deemed efficacious. Four replicate measurements in the same plate have been made for each test system. The number of replicate wells showing either bacterial growth or no growth is also readily assessed by eye by following the colour change. Dose responses for individual components and binary mixtures of actives at a fixed concentration ratio were generated by sequential dilution of liquors with further surfactant solution to obtain a series of endpoints. […] In some selected cases, the combinations were also tested at the weight ratio 1:1.

[2] = test system: Escherichia coli (E. coli—ATCC #10536); experiment: Synergy test: high resolution MBC microtiter plate assay, phosphate buffer containing 35% dipropylene glycol, 15 seconds contact; format: cell-based; settings: E. coli 10536; for SI (Synergy Index): at Qa and Qb, less than one = synergy; for MBC of the component acting alone (QA / QB; Qa or Qb where the other component is 0): complete kill in 15 seconds
Source text: The concentrations and ratios may also vary under different test conditions or with different test methods.
One measure of synergy is the industrially accepted method described by Kull, F. C.; Eisman, P. C.; Sylwestrowicz, H. D, and Mayer, R. L., in Applied Microbiology 9:538-541 (1961), using the ratio determined by the formula: […]=Synergy Index (“SI”) wherein; QA=concentration of compound A (first component) in percent, acting alone, which produced an end point (MBC of Compound A). Qa=concentration of compound A in percent, in the mixture, which produced an end point. QB=concentration of compound B (second component) in percent, acting alone, which, produced an end point (MBC of Compound B). Qb=concentration of compound B in percent, in the mixture, which produced an end point.
When the sum of Qa/QA and Qb/QB is greater than one, antagonism is indicated. […] The lower the SI, the greater is the synergy shown by that particular mixture. The minimum biocidal concentration (MBC) of a microbicide is the lowest concentration tested under a specific set of conditions that provides complete kill of the tested microorganisms.
Synergy tests were conducted using standard microliter plate assays with phosphate buffer containing 35% dipropylene glycol (DPG). In this method, a wide range of combinations of chemicals was tested by conducting high resolution MBC assays of Component (A) in the presence of various concentrations of Component (B). High resolution MBCs were determined by adding varying amounts of microbicide to one column of a microliter plate and doing subsequent […] dilutions using an automated liquid handling, system to obtain a series of closely spaced endpoints. The MBC plate was inoculated one column at a time with the test microorganism. An aliquot of the inoculated well was transferred at 15 seconds to a plate containing a neutralizing agent (D/E Neutralizing Broth), mixed and held for 5 minutes before being transferred to a growth plate containing trypticase soy broth (TSB). The TSB plate was incubated at 37° C. and read for the presence/absence of growth at 24 hours. The lowest level tested that provided complete kill (as evidenced by no growth in the microtitre plate) of the test organisms in 15 seconds is the minimum biocidal concentration (MBC).
The synergy of the combinations of the present invention was determined against a bacterium, Escherichia coli (E. coli—ATCC #10536), at a concentration of approximately 1×10^8 it bacteria per mL. This microorganism is representative of natural contaminants in many consumer and industrial applications.

Row | SMILES | No. of replicates showing growth (out of 4) ([1]; 0.125% w/v) | Δ OD 450 nm = OD450 (time = 16 hours) − OD450 (time zero), Mean ([1]; 0.125% w/v) | Δ OD 590 nm OD590 (time = 16 hours) − OD590 (time zero), Mean ([1]; 0.125% w/v) | No. of replicates showing growth (out of 4) ([1]; 0.2% w/v) | Δ OD 450 nm = OD450 (time = 16 hours) − OD450 (time zero), Mean ([1]; 0.2% w/v) | Δ OD 590 nm OD590 (time = 16 hours) − OD590 (time zero), Mean ([1]; 0.2% w/v) | No. of replicates showing growth (out of 4) ([1]; […] w/v) | Δ OD 450 nm = OD450 (time = 16 hours) − OD450 (time zero), Mean ([1]; […] w/v) | Δ OD 590 nm OD590 (time = 16 hours) − OD590 (time zero), Mean ([1]; […] w/v) | MBC (minimum biocidal concentration) [1] [% w/v] | SI (Synergy Index) [2] | MBC of the component acting alone (QA / QB; Qa or Qb where the other component is 0) [2] | No. of replicates showing growth (out of 4) ([1]; 0.1% w/v) | Δ OD 450 nm = OD450 (time = 16 hours) − OD450 (time zero), Mean ([1]; 0.1% w/v) | Δ OD 590 nm OD590 (time = 16 hours) − OD590 (time zero), Mean ([1]; 0.1% w/v) | further results
1 | Oc1ccc(C2CCCC2)cc1 [4-cyclopentylphenol] | 4 | −0.49 | 0.62 | 4 | −0.40 | 0.70 | 4 | −0.45 | 0.65 | >0.2 | 1.00 | 0.3 weight % and 0.5 weight % and 0.2 weight % |  |  |  | 
2 | Oc1ccc(Cc2ccccc2)cc1 [4-hydroxydiphenylmethane] |  |  |  | 4 | −0.52 | 0.61 | 4 | −0.55 | 0.54 | >0.2 | 1.00 | 0.8 weight % and 0.6 weight % | 4 | −0.58 | 0.52 | 
3 | CC(C)(C)c1ccc(O)c(O)c1 [4-tert-butylbenzene-1,2-diol] | 4 | −1.63 | 0.22 | 4 | −1.66 | 0.17 | 4 | −1.63 | 0.20 | >0.2 | 1.00 | 1.00 weight % and 1.0 weight % |  |  |  | 
4 | Oc1cccc2c1CCCC2 [5,6,7,8-tetrahydronaphthalen-1-ol] |  |  |  | 4 | −0.47 | 0.65 | 4 | −0.52 | 0.58 | >0.2 | 1.00 | 0.6 weight % | 4 | −0.57 | 0.56 | 
5 | C=C(C)[C@@H]1CC=C(CO)CC1 [(S)-(−) perillyl alcohol] |  |  |  | 4 | −1.49 | 0.29 |  |  |  |  |  |  |  |  |  | No. of replicates showing growth (out of 4) ([1]; 0.5% w/v): 0; Δ OD 450 nm = OD450 (time = 16 hours) − OD450 (time zero), Mean ([1]; 0.5% w/v): −0.04; Δ OD 590 nm OD590 (time = 16 hours) − OD590 (time zero), Mean ([1]; 0.5% w/v): 0.07
6 | CC1=CC(C)C(CO)C(C)C1 (stereo not shown) [Isocyclo-Geraniol] |  |  |  | 4 | −1.50 | 0.29 | 4 |  |  |  |  |  |  |  |  | No. of replicates showing growth (out of 4) ([1]; 0.4% w/v): 0; Δ OD 450 nm = OD450 (time = 16 hours) − OD450 (time zero), Mean ([1]; 0.4% w/v): −0.06; Δ OD 590 nm OD590 (time = 16 hours) − OD590 (time zero), Mean ([1]; 0.4% w/v): 0.09
